Laboratory results taken from the supplement of paper PMC10883282.

Legend:
Test in all cases: standardised AUC of viability dose-response curve (72 h) (fraction (0-1)); higher = less growth inhibition (more resistant)
HS729 = test system: HS729
In short: (§1)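 Sarcoma cell lines in 384-well plates were treated in triplicate for 72 h with 2.5 µl of compound dilution series (compound-plate series 10 mM to 0.0002 mM, 1:3 steps). ATPLite viability was scaled 1 (full) to 0 (none) and fitted per drug and cell line with a four-parameter log-logistic model. The standardised area under the dose-response curve in log-dose space (modified drexplorer computeAUC) runs from 1 (no response) to 0 (full response).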

SW982 = test system: SW982
In short: as §1

SW684 = test system: SW684
In short: as §1

VA-ES-BJ = test system: VA-ES-BJ
In short: as §1

SW1353 = test system: SW1353
In short: as §1

SYO-1 = test system: SYO-1
In short: as §1

A204 = test system: A204
In short: as §1

HT1080 = test system: HT1080
In short: as §1

MES-SA = test system: MES-SA
In short: as §1

RD = test system: RD
In short: as §1

RD-ES = test system: RD-ES
In short: as §1

KHOS-240S = test system: KHOS-240S
In short: as §1

SK-LMS-1 = test system: SK-LMS-1
In short: as §1

KHOS-NP = test system: KHOS-NP
In short: as §1

SW872 = test system: SW872
In short: as §1

G401 = test system: G401
In short: as §1

SK-ES-1 = test system: SK-ES-1
In short: as §1

Row | SMILES | standardised AUC (HS729) | standardised AUC (SW982) | standardised AUC (SW684) | standardised AUC (VA-ES-BJ) | standardised AUC (SW1353) | standardised AUC (SYO-1) | standardised AUC (A204) | standardised AUC (HT1080) | standardised AUC (MES-SA) | standardised AUC (RD) | standardised AUC (RD-ES) | standardised AUC (KHOS-240S) | standardised AUC (SK-LMS-1) | standardised AUC (KHOS-NP) | standardised AUC (SW872) | standardised AUC (G401) | standardised AUC (SK-ES-1)
1 | CC(C)(C)c1cc(NC(=O)Nc2ccc(-c3cn4c(n3)sc3cc(OCCN5CCOCC5)ccc34)cc2)no1 [QUIZARTINIB] | 0.939 | 0.992 | 0.966 | 0.976 | 0.978 | 0.879 | 0.745 | 0.964 | 0.93 | 0.977 | 0.989 | 0.954 | 0.94 | 0.964 | 0.986 | 0.958 | 0.924
2 | Cc1cnc(Nc2ccc(OCCN3CCCC3)cc2)nc1Nc1cccc(S(=O)(=O)NC(C)(C)C)c1 [FEDRATINIB] | 0.756 | 0.677 | 0.825 | 0.768 | 0.779 | 0.685 | 0.746 | 0.86 | 0.756 | 0.763 | 0.733 | 0.766 | 0.847 | 0.886 | 0.754 | 0.784 | 0.691
3 | Cc1cc(C)c(/C=C2\C(=O)Nc3ccccc32)[nH]1 [SEMAXANIB] | 0.938 | 0.936 | 0.939 | 0.947 | 0.979 | 0.857 | 0.888 | 0.983 | 0.976 | 0.993 | 0.968 | 0.939 | 0.954 | 0.98 | 0.993 | 0.983 | 0.978
4 | COc1cc2c(Oc3ccc4[nH]c(C)cc4c3F)ncnc2cc1OCCCN1CCCC1 [CEDIRANIB] | 0.929 | 0.959 | 0.995 | 1 | 0.922 | 0.743 | 0.622 | 0.996 | 0.91 | 0.966 | 0.987 | 0.939 | 0.966 | 0.98 | 0.986 | 0.797 | 0.917
5 | CC[C@H](Nc1ncnc2[nH]cnc12)c1nc2cccc(F)c2c(=O)n1-c1ccccc1 [IDELALISIB] | 0.905 | 0.971 | 0.761 | 0.934 | 0.897 | 0.949 | 0.939 | 0.99 | 0.957 | 0.982 | 0.968 | 0.968 | 0.919 | 0.978 | 0.937 | 0.931 | 0.963
6 | COc1cccc2c1C(=O)c1c(O)c3c(c(O)c1C2=O)C[C@@](O)(C(=O)CO)C[C@@H]3O[C@H]1C[C@H](N)[C@H](O)[C@H](C)O1 [DOXORUBICIN] | 0.638 | 0.537 | 0.796 | 0.574 | 0.669 | 0.47 | 0.532 | 0.6 | 0.496 | 0.609 | 0.472 | 0.588 | 0.672 | 0.694 | 0.655 | 0.577 | 0.439
7 | CNC(=O)c1cc(Oc2ccc(NC(=O)Nc3ccc(Cl)c(C(F)(F)F)c3)c(F)c2)ccn1 [REGORAFENIB] | 0.873 | 0.96 | 0.992 | 0.977 | 0.958 | 0.816 | 0.768 | 0.96 | 0.934 | 0.91 | 0.974 | 0.936 | 0.904 | 0.856 | 0.93 | 0.874 | 0.943
8 | Nc1cc(C(F)(F)F)c(-c2cc(N3CCOCC3)nc(N3CCOCC3)n2)cn1 [BUPARLISIB] | 0.815 | 0.79 | 0.823 | 0.762 | 0.85 | 0.791 | 0.754 | 0.862 | 0.753 | 0.785 | 0.769 | 0.829 | 0.75 | 0.887 | 0.809 | 0.823 | 0.742
9 | CCN1CCN(Cc2ccc(Nc3ncc(F)c(-c4cc(F)c5nc(C)n(C(C)C)c5c4)n3)nc2)CC1 [ABEMACICLIB] | 0.966 | 0.734 | 0.901 | 0.804 | 0.88 | 0.715 | 0.746 | 0.993 | 0.805 | 0.97 | 0.734 | 0.856 | 0.938 | 0.95 | 0.872 | 0.855 | 0.631
10 | Cc1nc(-c2cn3c(n2)-c2ccc(-c4cnn(C(C)(C)C(N)=O)c4)cc2OCC3)n(C(C)C)n1 [TASELISIB] | 0.77 | 0.826 | 0.702 | 0.727 | 0.855 | 0.84 | 0.675 | 0.989 | 0.664 | 0.727 | 0.675 | 0.843 | 0.771 | 0.975 | 0.76 | 0.744 | 0.68
11 | C[C@@H]1CCN(C(=O)CC#N)C[C@@H]1N(C)c1ncnc2[nH]ccc12 [TOFACITINIB] | 0.876 | 0.993 | 0.967 | 0.958 | 0.942 | 0.925 | 0.972 | 0.982 | 0.989 | 1 | 1 | 0.976 | 0.978 | 0.982 | 0.932 | 0.994 | 0.989
12 | C[C@]1(O)C[C@@H](c2nc(-c3ccc4ccc(-c5ccccc5)nc4c3)c3c(N)nccn32)C1 [LINSITINIB] | 0.776 | 0.9 | 0.965 | 0.936 | 0.979 | 0.876 | 0.922 | 0.954 | 0.952 | 0.836 | 0.73 | 0.915 | 0.973 | 0.973 | 0.936 | 0.817 | 0.708
13 | COc1c(OCCCN2CCOCC2)ccc2c1N=C(NC(=O)c1cnc(N)nc1)N1CCN=C21 [COPANLISIB] | 0.583 | 0.609 | 0.569 | 0.568 | 0.675 | 0.655 | 0.516 | 0.83 | 0.474 | 0.556 | 0.472 | 0.693 | 0.617 | 0.802 | 0.541 | 0.654 | 0.483
14 | C[C@@H](c1ccc2nccn2c1)n1nnc2ncc(-c3cnn(C)c3)nc21 [VOLITINIB] | 0.998 | 0.993 | 0.986 | 0.883 | 0.991 | 0.998 | 0.974 | 0.982 | 0.994 | 0.988 | 0.993 | 1 | 0.725 | 0.981 | 0.992 | 0.992 | 0.996
15 | CCc1cc2c(cc1N1CCC(N3CCOCC3)CC1)C(C)(C)c1[nH]c3cc(C#N)ccc3c1C2=O [ALECTINIB] | 1 | 0.989 | 1 | 0.949 | 1 | 1 | 1 | 0.991 | 1 | 0.99 | 1 | 0.967 | 0.985 | 0.989 | 1 | 0.997 | 0.993
16 | CN1CCC(COc2cnc(-c3cccc(Cn4nc(-c5cccc(C#N)c5)ccc4=O)c3)nc2)CC1 [TEPOTINIB] | 0.928 | 0.985 | 0.983 | 0.898 | 0.987 | 0.945 | 0.985 | 0.972 | 0.98 | 0.998 | 0.979 | 0.963 | 0.732 | 0.954 | 0.972 | 0.978 | 0.97
17 | COc1cc2nccc(Oc3ccc(NC(=O)Nc4cc(C)on4)c(Cl)c3)c2cc1OC [TIVOZANIB] | 0.971 | 0.974 | 0.985 | 0.995 | 0.97 | 0.807 | 0.658 | 0.995 | 0.931 | 0.985 | 0.974 | 0.954 | 0.956 | 0.983 | 0.982 | 0.933 | 0.971
18 | Cc1ccc(NC(=O)c2ccc(CN3CCN(C)CC3)cc2)cc1Nc1nc(-c2cccnc2)cs1 [MASITINIB] | 0.884 | 0.876 | 0.873 | 0.897 | 0.857 | 0.749 | 0.702 | 0.902 | 0.869 | 0.902 | 0.871 | 0.853 | 0.907 | 0.89 | 0.874 | 0.848 | 0.881
19 | C=CC(=O)N1CCC([C@@H]2CCNc3c(C(N)=O)c(-c4ccc(Oc5ccccc5)cc4)nn32)CC1 [ZANUBRUTINIB] | 0.964 | 0.941 | 0.97 | 0.973 | 0.934 | 0.974 | 0.957 | 0.987 | 0.981 | 0.966 | 0.974 | 0.976 | 1 | 1 | 0.941 | 0.977 | 0.977
20 | N#CC[C@H](C1CCCC1)n1cc(-c2ncnc3[nH]ccc23)cn1 [RUXOLITINIB] | 0.951 | 0.936 | 0.948 | 0.973 | 0.982 | 0.978 | 0.951 | 0.994 | 0.944 | 0.992 | 0.989 | 0.944 | 0.987 | 0.977 | 0.945 | 0.97 | 0.981
21 | Cc1cc(Nc2ncnc3ccc(NC4=NC(C)(C)CO4)cc23)ccc1Oc1ccn2ncnc2c1 [TUCATINIB] | 0.928 | 0.984 | 0.976 | 0.951 | 0.915 | 0.97 | 0.966 | 0.988 | 0.946 | 1 | 0.978 | 0.983 | 0.985 | 0.989 | 0.981 | 0.979 | 0.974
22 | CC(C)NC(=O)C1CCC(n2c(NC(=O)c3ccc(F)cc3)nc3ccc(CN4CCC(C(C)(C)O)CC4)cc32)CC1 (stereo not given) [BELIZATINIB] | 0.838 | 0.762 | 0.925 | 0.835 | 0.897 | 0.827 | 0.922 | 0.952 | 0.901 | 0.788 | 0.791 | 0.844 | 0.926 | 0.973 | 0.82 | 0.829 | 0.749
23 | O=C(Nc1cnn2ccc(N3CCC[C@@H]3c3cc(F)ccc3F)nc12)N1CC[C@H](O)C1 [LAROTRECTINIB] | 0.886 | 0.996 | 0.985 | 0.969 | 0.936 | 0.92 | 0.992 | 0.996 | 0.982 | 0.995 | 0.994 | 0.988 | 0.961 | 0.969 | 0.953 | 0.98 | 0.982
24 | Cn1cnc2c(F)c(Nc3ccc(Br)cc3F)c(C(=O)NOCCO)cc21 [BINIMETINIB] | 0.887 | 0.89 | 0.917 | 0.895 | 0.838 | 0.922 | 0.936 | 0.756 | 0.905 | 0.736 | 0.978 | 0.89 | 0.727 | 0.773 | 0.741 | 0.869 | 0.933
25 | Cn1cc(-c2cc3c(N4CCN(c5ncc([C@@](C)(N)c6ccc(F)cc6)cn5)CC4)ncnn3c2)cn1 [AVAPRITINIB] | 0.941 | 0.948 | 0.977 | 0.972 | 0.927 | 0.745 | 0.727 | 0.971 | 0.937 | 0.978 | 0.956 | 0.927 | 0.954 | 0.917 | 0.946 | 0.913 | 0.953
